From patent US20240009161A1, “[…] MATERIAL WITH LOW pH AND LOW TOXICITY ACTIVE AGAINST AT LEAST ONE PATHOGEN FOR ADDRESSING PATIENTS WITH RESPIRATORY […]” (priority 2020, published 2024)
Several values for one entry are separate records, joined by “and”; a condition that tells them apart may be missing. Identical values can stand only once. Like-named read-outs stand apart in the source and are kept apart here.

Assays:
[1] = tested on: Pseudomonas aeruginosa ATCC BAA-2801; assay: ASTM E2315 suspension test, 1 minute; format: cell-based
Description: (§1) In order to assess the antimicrobial efficacy of various acid compounds and combinations, a variety of potential pharmaceutically acceptable fluid formulations within the scope of the present disclosure were evaluated to determine antimicrobial efficacy against common viral, bacterial, and fungal pathogens. These studies were all performed by an ISO 17025 Accredited and GLP Compliant Laboratory. These in vitro tests followed ASTM (American Society of Testing and Materials) standard suspension tests for antimicrobial efficacy. The tests were all performed with a 1-minute contact time based on the pharmacokinetics previously described.
(§2) Purpose: The first set of in vitro efficacy tests were performed on antibiotic resistant Staphylococcus aureus and Pseudomonas aeruginosa bacteria. These two antibiotic resistant bacterial strains were initially selected since these pathogens represent two broad classes of bacteria. S. aureus is gram-positive and P. aeruginosa is gram-negative. Antibiotic resistant strains of each pathogen are considered some of the deadliest respiratory bacterial strains with limited therapeutic options.
(§3) The as-received pH measurements were of the test materials as received by the test laboratory. The ASTM antimicrobial test procedures mix 9 parts test material with 1 part medium containing the pathogen. The as-applied pH is the pH after mixing, which is what is seen by the pathogen. After the test duration, 1 minute for these tests, the test material is neutralized, and the pathogens are counted and compared with the control.

[2] = tested on: Staphylococcus aureus ATCC (MRSA) 33591; assay: ASTM E2315 suspension test, 1 minute; format: cell-based; conditions: pH 3.1, one minute
Description: as §1, §2, §3

[3] = tested on: Streptococcus pneumoniae ATCC 6303; assay: ASTM E2315 suspension test, 1 minute; format: cell-based
Description: as §1
Purpose: Streptococcus pneumoniae is a leading cause of bacterial pneumonia, meningitis, and sepsis, and is estimated to have caused approximately 335,000 (240,000-460,000) deaths in children aged <5 years in 2015 globally. Due to the prevalence and mortality of S. pneumoniae a wide range of acid formulations were tested against this common pathogen to determine what variables may affect efficacy. The purpose of the tests performed was to determine what pH is required to achieve 1 log (90%) efficacy in 1 minute against S. pneumoniae using various acid formulations.

SARS-CoV-2 virus = conditions: hard surfaces, 1 minute, 4% concentration, 2.68 pH; cited from earlier work
Rhinovirus 37 = assay: ASTM E1052 virus suspension test, 1 minute; format: cell-based; conditions: 1.66 and 1.90 pH
L929 mouse cell line = conditions: for Cytotoxicity Grade: mouse
[4] = tested on: Mycobacterium terrae ATCC 15755; format: cell-based
[5] = tested on: Human Coronavirus, 229E strain, ATCC VR-740; assay: ASTM E1052 virus suspension test, 1 minute; format: cell-based
Description: A 1-minute suspension test is considered to be the most representative in vitro test to simulate in vivo efficacy based on previously discussed pharmacokinetics. A 1 log or 90% efficacy target has been chosen with consideration of patient recovery, while minimizing the effective concentration and potential patient risk. In one contemplated method of administration as described in the present disclosure, the material is administered to the patient in need thereof by inhalation by nebulizer. It is contemplated that patients using an inhalation method such as nebulizer administration would be inhaling the therapeutic material comprising a pharmaceutically acceptable fluid as disclosed herein continuously for several minutes in a specific concentration either continuously or in a series of discrete dose intervals with potentially multiple times per day potentially over multiple days. As a result, any reduction in pathogen load in vitro may be compounded in vivo to achieve higher efficacy over the treatment period.
as §1
Purpose: COVID-19 is a global pandemic caused by the SARS-CoV-2 coronavirus. The purpose of these studies was to determine the efficacy of several inorganic acids against the human coronavirus and ascertain the pH required to achieve 1 log efficacy in 1 minute.
SARS-CoV-2 is a beta coronavirus. An alpha coronavirus was used in these studies since this was the closest virus available at the test laboratory. The alpha coronavirus is considered to be representative for efficacy on SARS-CoV-2 for purposes of this investigation.
Due to the larger increase in pH, none of the acids achieved the 1 log efficacy goal.
The EMEM includes live MRC-5 cells which have significant buffer capacity.

[6] = tested on: Aspergillus fumigatus ATCC 36607; assay: ASTM E2315 suspension test, 1 minute; format: cell-based; conditions: 1.9 pH
[7] = tested on: Influenza A (H1N1) A/PR/8/34 Strain; format: cell-based, Influenza A virus
[8] = tested on: Rhizopus microspores ATCC 52807; assay: ASTM E2315 suspension test, 1 minute; format: cell-based; conditions: 1.9 pH
[9] = tested on: Klebsiella pneumoniae ATCC 4532; assay: ASTM E2315 suspension test, 1 minute; format: cell-based; conditions: 1.99 pH
[10] = tested on: Haemophilus influenza ATCC 8149; assay: ASTM E2315 suspension test, 1 minute; format: cell-based; conditions: 1.99 pH
Description: as §1
Three other bacteria and three fungi were selected that represent a wide variety of respiratory pathogens.

With Albuterol sulfate [reference compound] the “Effectiveness vs 1 log target” value ([1]; 3.1 pH) was “no efficacy” and the “Efficacy as 1 log decrease in pathogen count” value [2] was “no efficacy”.
For Br [hydrobromic acid, Hydrobromic acid], the “Effective pH to meet the 1 log efficacy target” value [3] was 1.90 pH.
With Polyphosphoric acid the “Effective pH to meet the 1 log efficacy target” value [3] was “approximately 1.85 pH”.
For Cl [hydrochloric acid, Hydrochloric acid], the “Effective pH to meet the 1 log efficacy target” value [3] was “approximately 1.87 pH” and the “Efficacy” value ([3]; 1.98 pH) was “no little efficacy”.
In the case of CC(=O)O [acetic acid, Acetic acid], the Log efficacy (SARS-CoV-2 virus) is given as 4 log.
With O=S(=O)(O)O [sulfuric acid, Sulfuric acid] the “Log efficacy” value (Rhinovirus 37) was over 2 log, the “Test Results” value (L929 mouse cell line) was “No biological reactivity” and the “Cytotoxicity Grade” value (L929 mouse cell line; 0.12 %) was “Grade 0”. The “Cytotoxicity Grade” value (L929 mouse cell line; 0.18 %) was “Grade 0”, the “Cytotoxicity Grade” value (L929 mouse cell line; 0.3 %) was “Grade 0” and the “Cytotoxicity Grade” value (L929 mouse cell line; […]) was “Grade 0”. For the same molecule, the “Efficacy %” value [4] was 25% and 24.56%, the “Efficacy log” value [4] was 0.12 log and the “Effectiveness” value ([1]; 1.9 pH, antibiotic resistant strain) was “effective”. The “Efficacy %” value [5] was 82.11%, the “Efficacy at inactivating human coronavirus” value [5] was “provides efficacy at inactivating and/or reducing concentration of human coronavirus” and the “Efficacy log” value [5] was 0.75 log. The “In vitro efficacy on human coronavirus” value [5] was “demonstrated in vitro efficacy on human coronavirus”, the “In vitro suspension efficacy, %” value [5] was 82.11% and the “In vitro suspension efficacy, log” value [5] was 0.75 log. The “Effectiveness” value [6] was “effective”, the “Log efficacy” value [7] was over 4 log and the “Effectiveness” value [8] was “effective”. The “Effective pH to meet the 1 log efficacy target” value [3] was 1.91 pH, the “Effectiveness” value ([3]; 1.9 pH) was “effective” and the “Effectiveness” value [9] was “highly effective”. The “Effectiveness” value [10] was “highly effective”.
